According to patent US12187715B2, “Small molecule activators of Tie-2” (EyePoint Pharmaceuticals, Inc., priority 2019, dated 2025):
Entries after “also recorded” stand apart in the source; their conditions may differ. Blank lines part the entries; values can stand above or below the molecule they belong to.

Columns and labels:
[1] = Solubility testing in water by portionwise addition until saturation; type: physicochemical
Experimental: The solubility of compounds 2-4 was determined by portionwise addition of the compounds to water until saturation was obtained. Water (10 mL) was added to a 20-mL vial. About 100 mg of Compound 2 was added. The suspension was stirred at room temperature for 20 minutes until the contents became a clear solution. Compound 2 (˜100 mg portionwise) was added repeatedly with 30 min stirring time between the additions. Once a suspension was obtained after continuous stirring for 2 hours, the suspension was stirred overnight. The same procedure was used for the suspension preparations of Compound 3 and Compound 4.
After stirring overnight, filtration of each sample was attempted.
An aliquot of the suspension of Compound 2 was filtered through a 0.22 micron inline syringe filter.
About 1 mL of the aqueous solutions prepared above was diluted with water by 50%. The pH of the 50% diluted solutions was adjusted to pH 7 either by 0.1 N HCl or by 0.1 N NaOH. Solubility values for the three compounds in the solutions/suspensions before and after dilution are given in the in TABLE 3.
The solubility of Compounds 2-4 was determined by portionwise addition of the compounds to water until saturation was obtained. After stirring overnight, the suspensions were filtered and analyzed by HPLC. […] The solubility of Compound 3 was >200 mg/mL. The absolute solubility of Compound 3 was not determined because in the course of analysis, the solution of Compound 3 became too viscous to stir. […] The 50% diluted solutions of Compounds 2-4 were not viscous, and the compounds remained in solution for 4 weeks. […] All of the diluted solutions were easily syringable over 4 weeks' time.

[2] = Physical stability (appearance) of the aqueous solutions standing at room temperature; type: physicochemical; settings: for Appearance of solution: undiluted
[3] = test system: phospho-Akt1 (pAkt); experiment: Phospho-Akt activation assay in human umbilical vein endothelial cells (Western blot); type: cell-based
Experimental: The ability of the small molecule analogues as shown in EXAMPLES 1-3 to stimulate production of phospho-Akt1 (pAkt) was tested. Akt plays a critical role in controlling cell survival and apoptosis, and Akt phosphorylation is increased by the activation of Tie-2. Akt activation can be detected by an antibody that recognizes phosphorylation on the serine 473 residue on Akt.
HUVECs were seeded at 500,000 cells/mL in chemically-defined basal media, and supplemented with distinct growth factors (EGM-2). The following growth factors were required for survival and normal phenotypic expression of endothelial characteristics: fetal bovine serum 2%, hydrocortisone, human fibroblast growth factor-B, vascular endothelial growth factor, recombinant insulin growth factor R3, ascorbic acid, human epidermal growth factor, gentamicin sulfate, amphotericin B, and heparin. Cells were derived from one donor, cultivated in 10 cm dishes, and expanded upon reaching 90% confluence. After three passages, the cells were expanded and ready for testing.
The cells were seeded at 25,000 cells/mL in 6-well plates, and covered with 2 mL of complete media. The cells were fed on day 2 of culture with 2 mL of fresh EGM-2 media. 72 hours after plating, the cells were serum starved by rinsing twice with 2 mL of sterile phosphate buffered saline, and then placed at 37° C. for 3 hours in the presence of basal EGM-2 media (1.5 mL/well without growth factors). The serum starvation allowed the cells to become quiescent.
Compounds 2-4 were dissolved in distilled deionized water at the following concentrations: • Compound 2 (Molecular weight: 622.7): 31 mg/ml. • Compound 3 (Molecular weight: 622.7): 26 mg/ml. • Compound 4 (Molecular weight: 636.7): 32 mg/ml.
All compounds were stored at 4° C. […] Stock concentrations of the above molecules were made at a final working concentration of 1 mM. Specific microliter volumes of the working concentration were added to each 6 well plate at the following concentrations: 3, 10, and 30 micromolar (μM). Cells were treated for 30 minutes.
10× cell lysis buffer was diluted fresh with dH2O. The 1× cell lysis buffer contained: 20 mM Tris-HCl (pH 7.5), 150 mM NaCl, 1 mM Na2EDTA, 1 mM EGTA, 1% Triton, 2.5 mM sodium pyrophosphate, 1 mM β-glycerophosphate, 1 mM Na3VO4, 1 μg/ml leupeptin, and 1 mM PMSF. Immediately before use, 1 mM PMSF was prepared by diluting from a stock of 1 M PMSF made up in DMSO. In addition, a 1× concentration of a Halt protease & phosphatase inhibitor cocktail was included. At the end of the 30 minute treatment, the media was discarded from the cell culture wells by shaking out, and the remaining media was aspirated off the wells. Ice-cold lysis buffer was added at 140 μL/well, and the culture was placed on ice or in a cold room for 30 minutes while rocking. Cell lysates were collected using a cell scraper, placed in microfuge tubes, and stored at −80° C. The levels of protein were quantitated using a microtiter plate BCA protein assay.
2× Laemmli sample buffer was added in equal volume to the […] cell lysis buffer, which contained the lysed endothelial cells. The solution was heated at 100° C. for 5 minutes and then sonicated for 10 seconds. After sonication, the lysates were spun by centrifuge at 4° C. for 5 minutes at 17,000 rpm. 70-100 μg of protein calculated from BCA assay prior to addition of 2× Laemmli sample were added per well of an 8% polyacrylamide gel.
Electrophoresis was performed at 150 volts for approximately 90 minutes at room temperature with 1× Laemmli running buffer. The proteins from the gel were transferred to nitrocellulose at 100 volts for 45 minutes on ice.
The nitrocellulose membranes were removed quickly without drying and placed in phosphate buffered saline (pH 7.3) with 1% nonfat dried milk. The membranes were blocked in the milk solution while rocking for 2 hours at room temperature or overnight at 4° C. […]

[4] = Syringability testing (200 g weight on BD 1-mL syringe plunger, 27 G needle); type: physicochemical; settings: for Syringability: time to expel 1 mL: 50% diluted solution
Experimental: Syringability testing was carried out by applying 200 g of weight on top of a BD 1-mL syringe plunger and measuring the time required to expel 1 mL of the saturated solutions through a 27 G needle. The times are recorded in TABLE 4. At T=0, 43 seconds were required to expel 1 mL of Compound 2, while 8 seconds were required to expel 1 mL of Compound 4. In contrast, approximately 5 minutes were required to expel only 0.1 mL of Compound 3, based on the very high viscosity of the solution relative to that of the other two.
Syringability test results of the 50% diluted solutions (TABLE 5) indicated a slight increase in viscosity (syringability test for water was 10 sec). All three solutions remained easily syringable.

[5] = HPLC purity analyses of aqueous solutions over time at room temperature (chemical stability); type: physicochemical

Physical state of the preparation ([1]; 50% dilution, T = 4 weeks): (solution)
Physical state of the preparation ([1]; Before dilution, T = 0): (viscous solution)
Solubility value in water ([1]; Before dilution, T = 5 weeks, room temperature): No change*
Amount (g) of compound added until saturation ([1]; added portionwise to 10 mL water, room temperature): 2.323 g
Filtration ([1]; filtration of the sample attempted after stirring overnight): not filtered successfully and No
solubility at 4 weeks ([1]; water, pH 7, aqueous buffer, 50% dilution with water, adjusted to pH 7, T = 4 weeks): > 115 mg/mL
solubility at 0 weeks ([1]; water, thermodynamic from solid, Before dilution, T = 0, estimated from weight added): > 230 mg/mL
solubility ([1]; water, thermodynamic from solid, Conclusions: suspensions stirred overnight, filtered and analyzed by HPLC, initial): > 200 mg/mL
Gelation or precipitation of undiluted solution ([2]; throughout the 4-week study period (Compound 2: over 5 weeks)): No gelation or precipitation
Appearance of solution ([2]; T = 0): Hazy
Appearance of solution ([2]; T = 2 week): Hazy
Appearance of solution ([2]; T = 3 week): Hazy
Appearance of solution ([2]; T = 4 week): Hazy
Appearance of solution ([2]; T = 1 day): Hazy
Appearance of solution ([2]; T = 2 day): Hazy
Appearance of solution ([2]; T = 3 day): Hazy
Appearance of solution ([2]; T = 4 day): Hazy
Appearance of solution ([2]; T = 5 day): Hazy
Appearance of solution ([2]; T = 6 day): Hazy
Syringability: time to expel 1 mL ([4]; T = 2 week): 12 s
Syringability: time to expel 1 mL ([4]; T = 3 week): 13 s
Syringability: time to expel 1 mL ([4]; T = 4 week): 15 s
Syringability: time to expel 1 mL ([4]; T = 2 day): 13 s
Syringability: time to expel 1 mL ([4]; T = 3 day): 14 s
Syringability: time to expel 1 mL ([4]; T = 4 day): 17 s
Syringability: time to expel 1 mL ([4]; T = 7 day): 15 s
Syringability of the saturated solutions (in words) ([4]; undiluted solutions): too viscous to syringe
HPLC purity ([5]; 50% diluted samples, room temperature, T = 4 weeks): 97.9%
HPLC purity ([5]; undiluted samples, T = 0 (dry sample)): 99.08%
HPLC purity ([5]; undiluted samples, room temperature, T = 5 weeks): 97.3%
HPLC purity ([5]; undiluted samples, room temperature, T = 1 day): 98.26%
SMILES: COC(=O)N[C@@H](Cc1ccccc1)C(=O)N(C)[C@@H](Cc1ccc(NS(=O)(=O)[O-])cc1)c1csc(-c2cccs2)n1.[Na+] [Compound 3, sodium (4-{(S)-2-{(S)-2-[(methoxycarbonyl)amino]-N-methyl-3-phenylpropanamido}-2-[2-(thiophen-2-yl)thiazol-4-yl]ethyl}phenyl)sulfamate]
Physical appearance ([1]; after portionwise addition to 10 mL water): hazy, highly viscous mixture; also recorded: No precipitate
pAkt signal above control ([3]; HUVECs, 30 μM, 30 minutes treatment): 80%
Relative potencies for activation of pAkt ([3]; HUVECs, 3, 10 and 30 μM): Compound 2>Compound 4>Compound 3

SMILES: CCc1csc([C@H](Cc2ccc(NS(=O)(=O)O)cc2)NC(=O)[C@H](Cc2ccccc2)NC(=O)OC)n1 [Compound 5, 4-{(S)-2-[(S)-2-(methoxycarbonylamino)-3-phenylpropanamido]-2-(4-ethylthiazol-2-yl)ethyl}phenylsulfamic acid, reference compound]
pAkt levels above control ([3]; HUVECs, highest dose 10 μM, two separate experiments): 278%
